# Reference: patent US20120316203A1, “Compositions and Methods for Inhibition of Cancers” (THE OHIO STATE UNIVERSITY RESEARCH FOUNDATION, priority 2009, published 2012)
# Tests used:
# [1] = system: A2780 cells; assay: Cell proliferation by clonogenic assay; type: cell-based, human; details: 24 hours treatment, 7 days growth
# Experimental: Cell survival was assessed by clonogenic assay. Cells at […] confluence were trypsinized, rinsed, seeded onto 60-mm dishes (5×10^4 cells per dish), grown for 24 hours at 37° C., and treated afterward with H-4073 or HO-3867 for 24 hours. Nontreated cells served as controls. After treatment, the cells were washed twice with PBS, trypsinized, counted, and plated in 60-mm dishes in triplicate and incubated for an additional 7 days. The colonies were then stained with crystal violet (in ethyl alcohol) and counted using an automated colony counter (ColCount, Oxford Optronix). Each experiment was repeated at least five times.
# [2] = system: hOSE cells; assay: Cell viability by MTT assay, noncancerous hOSE control cells; type: cell-based, human
# Experimental: Cell viability was determined by a colorimetric assay using MTT. In the mitochondria of living cells, yellow MTT undergoes a reductive conversion to formazan, producing a purple color. Cells, grown to […] confluence in 75-mm flasks, were trypsinized, counted, seeded in 96-well plates with an average population of 7,000 cells per well, incubated overnight, and then treated with curcumin, H-4073, or HO-3867 for 24 hours. All experiments were done using eight replicates and, repeated at least thrice.
# [3] = system: A2780 cells; assay: Cell-cycle analysis by flow cytometry; type: cell-based, human; details: 6, 12, or 24 hours, versus nontreated control
# Experimental: Cells were treated with HO-3867 (10 μmol/L) for 24 hours, trypsinized, washed in PBS, and fixed in an ice-cold 75% ethanol/PBS solution. The DNA was labeled with propidium iodide. Cells were sorted by flow cytometry and cell cycle profiles were determined using ModFit LT software (Becton Dickinson).
# We next examined whether the growth inhibition of A2780 cells by HO-3867 was caused by cell cycle arrest. Cells were treated with HO-3867 for 6, 12, or 24 hours; fixed; and cell cycle populations were determined by flow cytometry.
# [4] = system: A2780 human ovarian tumor xenograft; assay: Ovarian cancer tumor xenografts in mice, tumor growth; type: in vivo, BALB/c nude mice; details: 25, 50, and 100 ppm in feed, 5 weeks; dose-dependent, 50 and 100 ppm more effective
# Experimental: (§1) Cultured A2780 cancer cells (2×10^6 cells in […] of PBS) were s.c. injected into the back of 6-week-old BALB/c nude mice from the National Cancer Institute. Five to 7 days later, when the tumors reached 3 to 5 mm in diameter, the mice were divided (n=9/group) in a manner to equalize the mean tumor diameter among the groups. The control group was given a normal diet (no treatment), whereas the experimental groups were treated using the DAP compounds mixed with the animal feed (Harlan Teklad) at three different levels (25, 50, and 100 ppm). The doses were chosen based on an initial dose-response study optimized to produce an observable effect on tumor growth. The size of the tumor was measured twice per week using a digital Vernier caliper. The tumor volume was determined from the orthogonal dimensions (d1, d2, d3) using the formula (d1×d2×d3)×π/6. Thirty five days after the beginning of HO-3867 treatment, the mice were sacrificed and the tumors were resected. The tumor tissues were then subjected to immunoblot analysis.
# [5] = Body weight and diet consumption of tumor-bearing animals; type: in vivo; details: 25, 50, and 100 ppm in feed, 5 weeks
# Experimental: as §1
# The mice were treated with HO-3867 and the tumor size as measured twice weekly for 5 weeks. […] We also measured the body weight and diet consumption of tumor-bearing animals.
# [6] = system: A2780 and other cancer cells; assay: Metabolic conversion to nitroxide in cancer cells (EPR); type: in vitro ADME, human
# Source text: The N-hydroxypyrroline (—NOH) moiety is capable of undergoing a reversible one-electron oxidation to its nitroxide form (—NO; FIG. 9A), which is paramagnetic and detectable by EPR spectroscopy.
# [7] = system: HSMC; assay: Intracellular ROS by DCF fluorescence, HSMC; type: cell-based, human; details: 10 μM, 12 h
# Experimental: The ROS levels in cells treated with DAPs were determined using H2DCF-DA, a membrane-permeative fluorogenic probe. The acetate and acetoxymethyl ester groups of this probe are enzymatically cleaved inside living cells. The probe can then be oxidized by intracellular oxidants (ROS) to give a product, DCF, which emits a strong, green fluorescence (λex=504 nm; λem=529 nm). The fluorescence intensity is proportional to the level of cellular oxidants. […] The cells were further incubated in the dark for 20 min and washed with protein-free medium, and then fluorescence images were immediately captured with a Nikon Eclipse TE2000-U camera system using excitation/emission at 495/520 nm. The captured images were then analyzed using MetaMorph image analysis software.
# [8] = system: pSTAT3 (Tyr705 and Ser727), cleaved caspase-3 and PARP in A2780, A549, HepG2, MCF-7, HCT-116 cells; assay: Western blot of STAT3 signaling and apoptotic markers in cancer cells; type: cell-based, human; details: 10 μM, 24 h
# Experimental: Cells were grown in RPMI 1640 medium and treated with DMSO (control) or HO-3867 ([…]). Equal volumes of DMSO (0.1% v/v) were present in both groups. After treatment, cell lysates were prepared in nondenaturing lysis buffer (10 mM Tris-HCl (pH 7.4), 150 mM NaCl, 1% Triton X-100, 1 mM EDTA, 1 mM EGTA, 0.3 mM phenylmethylsulfonyl fluoride, 0.2-mM sodium orthovanadate, 0.5% NP-40, 1 lag/ml aprotinin, and 1 lag/ml leupeptin). Cell lysates were centrifuged at 10,000 RPM for 20 min at 4° C., and the supernatant was separated. The protein concentration in the lysates was determined using a Pierce detergent-compatible protein assay kit. For Western blotting, 25 to 50 lag of protein lysate per sample was denatured in 2× sample buffer and subjected to SDS-PAGE on a 10 or 12% Tris-glycine gel. The separated proteins were transferred to a PVDF membrane and then the membrane was blocked with 5% nonfat milk powder (w/v) in 10 mM Tris, 100 mM NaCl, 0.1% Tween 20 for 1 h at room temperature or overnight at 4° C. The membranes were incubated with the primary antibodies described above. The bound antibodies were detected with horseradish peroxidase (HRP)-labeled sheep anti-mouse IgG or HRP-labeled donkey anti-rabbit IgG (Amersham) using an enhanced chemiluminescence detection system (ECL Advanced Kit). Protein expression was determined using Image Gauge version 3.45.
compound,measurement,setting,value
"CC1(C)C=C(CN2C/C(=C\c3ccc(F)cc3)C(=O)/C(=C/c3ccc(F)cc3)C2)C(C)(C)N1O [HO-3867, 1-[(1-oxyl-2,2,5,5-tetramethyl-2,5-dihydro-1H-pyrrol-3-yl)methyl]-(3E,5E)-3,5-bis(4-fluorobenzylidene)piperidin-4-one]",number of colonies (colony-forming ability),[1],dose-dependent reduction in the number of colonies
same,cytotoxicity to hOSE cells,[2]; 20 μmol/L,significant cytotoxicity
same,toxicity to noncancerous hOSE cells compared with H-4073,[2]; equivalent doses,significantly less toxic
same,cytotoxicity to hOSE cells,[2]; up to 10 μmol/L,no significant cytotoxicity
same,percentages of the cell population in the G2-M and sub-G1 phases,[3],significantly higher
same,tumor volume,[4],significant reduction
same,"gross signs of toxicity (body weight, diet consumption)",[5],did not show any gross signs of toxicity
same,EPR signal intensity of the nitroxide metabolite in A2780 cells compared to PBS,[6],fivefold increase
same,EPR spectrum (nitroxide signal) after incubation with A2780 cells,"[6]; 37° C., EPR",characteristic triplet feature
same,amounts of ROS in HSMC compared to A2780 cells,[7],significantly lower amounts of ROS
same,intracellular ROS generation (DCF fluorescence) in HSMC,[7],not significantly different from that of the untreated cells
same,Tyr705 and Ser727 pSTAT3 levels in cancer cells,[8],significantly attenuated
same,activated caspase-3 and PARP in cancer cells,[8],significant elevation
